The results in this text go back to patent US20250221966A1, “RXFP1 AGONISTS” (BRISTOL-MYERS SQUIBB COMPANY, priority 2021, published 2025).

In this assay the target is T1, human RXFP1 (Homo sapiens, UniProt Q9HBX9).
T1 construct: expressed in transfected cells
T1 sequence (Q9HBX9 1-757): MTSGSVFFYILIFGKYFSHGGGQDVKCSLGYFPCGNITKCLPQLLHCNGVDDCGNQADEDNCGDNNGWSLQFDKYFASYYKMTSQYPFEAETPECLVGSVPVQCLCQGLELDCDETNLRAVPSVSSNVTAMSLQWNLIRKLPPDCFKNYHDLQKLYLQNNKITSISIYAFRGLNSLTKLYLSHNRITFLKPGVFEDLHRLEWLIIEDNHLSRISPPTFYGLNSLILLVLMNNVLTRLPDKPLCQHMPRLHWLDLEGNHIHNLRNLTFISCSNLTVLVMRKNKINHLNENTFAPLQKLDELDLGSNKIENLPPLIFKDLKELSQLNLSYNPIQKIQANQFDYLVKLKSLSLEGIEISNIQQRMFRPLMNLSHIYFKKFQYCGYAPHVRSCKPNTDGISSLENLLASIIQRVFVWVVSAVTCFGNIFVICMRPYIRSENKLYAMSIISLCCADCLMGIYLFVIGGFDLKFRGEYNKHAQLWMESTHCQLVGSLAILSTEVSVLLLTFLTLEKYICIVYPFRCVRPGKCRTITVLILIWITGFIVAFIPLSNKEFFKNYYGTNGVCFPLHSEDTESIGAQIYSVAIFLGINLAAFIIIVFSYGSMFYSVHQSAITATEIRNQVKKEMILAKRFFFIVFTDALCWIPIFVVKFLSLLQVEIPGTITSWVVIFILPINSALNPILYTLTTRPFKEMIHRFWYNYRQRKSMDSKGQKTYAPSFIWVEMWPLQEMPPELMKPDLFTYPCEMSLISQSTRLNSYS
Briefly: RXFP1 cAMP assay (hRXFP1 HEK293 cAMP assay, HTRF). It is filed as cell-based. Particulars: HEK293 cells stably expressing human RXFP1, 30 min at room temperature, read-out: cAMP hRXFP1 HEK293 Assay EC50. The procedure, abridged:
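Potency and activity come from a four-parameter logistic fit of cAMP against compound concentration, tested from 0.010 nM up to 50 μM. The assay uses HEK293 cells stably expressing human RXFP1, incubated 30 min at ambient temperature with phosphodiesterase inhibitor IBMX present.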
On the technique in general: Cyclic AMP is a second messenger, typically raised through Gs and lowered through Gi signalling.
With `O=C(N[C@H]1[C@@H](C(=O)Nc2ccc(F)c(C(F)(F)F)c2)[C@H]2CC[C@@H]1/C2=C\C1CC1)c1cc(C2=NOC3CC(CO)CC23)ccc1F` (single isomer, unassigned) [compound 717], the EC50 was 2320 nM.
In the case of `COc1ccc(-c2c(C)noc2C)cc1C(=O)N[C@H]1[C@@H](C(=O)Nc2ccc(F)c(C(F)(F)F)c2)[C@H]2CC[C@@H]1C2=C(C)C` [compound 104], the EC50 turned out to be 1600 nM.
The figure for `COc1ccc(C2=NOC3COCC23)cc1C(=O)N[C@H]1[C@@H](C(=O)NCC2C(C)(C)C2(C)C)[C@H]2CC[C@@H]1/C2=C\C1CC1` (stereo partly shown) [compound 586] is 79.1 nM; for `COc1ccc(C2=NOC3COCC23)cc1C(=O)N[C@H]1[C@@H](C(=O)NCC2(C)CCC2)[C@H]2CC[C@@H]1/C2=C\C1CC1` (stereo partly shown) [compound 477] it is 6.4 nM; for `COc1ccc(-c2cc(C(=O)O)ccc2F)cc1C(=O)N[C@@H]1C2CCC(/C2=C/c2ccoc2)[C@@H]1C(=O)Nc1ccc(F)c(C(F)(F)F)c1` (stereo partly shown) [compound 159] it is 21 nM.
On to `COc1ccc(-c2cc(C3=NOC(C(=O)O)C3)ccc2F)cc1C(=O)N[C@H]1[C@@H](C(=O)Nc2ccc(F)c(C(F)(F)F)c2)[C@H]2CC[C@@H]1/C2=C\C1CCCC1` (stereo partly shown) [compound 945], for which the EC50 was 5.4 nM.
As for `COc1ccccc1/C=C1\C2CCC1[C@H](C(=O)Nc1ccc(F)c(C(F)(F)F)c1)[C@@H]2NC(=O)c1cc(F)c(F)cc1OC` (stereo partly shown) [compound 23], the EC50 was 1400 nM.
In the case of `COc1ccc(C2=NOC3CC(C)(O)CC23)cc1C(=O)N[C@H]1[C@@H](C(=O)Nc2ccc(F)c(C(F)(F)F)c2)[C@H]2CC[C@@H]1/C2=C\C1CC1` (stereo partly shown) [compound 858], the EC50 came out at 1.3 nM.
As for `COc1ccc(N2CCCC(CO)C2)cc1C(=O)N[C@@H]1C2CCC(/C2=C/C2CC2)[C@@H]1C(=O)Nc1ccc(F)c(C(F)(F)F)c1` (single isomer, unassigned) [compound 705], the half-maximal effective concentration (EC50) was found to be 1300 nM.
Under `COc1cc(C)c(C2=NOC3CC(CO)CC23)cc1C(=O)N[C@H]1[C@@H](C(=O)Nc2ccc(F)c(C(F)(F)F)c2)[C@H]2CC[C@@H]1/C2=C\C1CC1` (stereo partly shown) [compound 740] stands 3.4 nM; under `CCC(NC(=O)[C@@H]1[C@H](NC(=O)c2cc(C3=NOC4COCC34)ccc2OC)[C@@H]2CC[C@H]1/C2=C/C1CC1)c1ccccc1C` (single isomer, unassigned) [compound 656], 311 nM; under `COc1ccc(Br)cc1C(=O)N[C@@H]1C2CCC(/C2=C/c2ccccc2)[C@@H]1C(=O)Nc1ccc(F)c(C(F)(F)F)c1` (stereo partly shown) [Example 77], 330 nM.
In the case of `COc1ccc(C2=NOC3COCC23)cc1C(=O)N[C@H]1[C@@H](C(=O)NCc2ccn(C)n2)[C@H]2CC[C@@H]1/C2=C\C1CC1` (stereo partly shown) [compound 722], the EC50 is 4180 nM.
As to `COc1ccc(C2=NOC(C3(O)CCC3)C2)cc1C(=O)N[C@H]1[C@@H](C(=O)Nc2ccc(F)c(C(F)(F)F)c2)[C@H]2CC[C@@H]1/C2=C\C1CC1` (single isomer, unassigned) [compound 603], the half-maximal effective concentration (EC50) was found to be 112 nM.
In the case of `COc1ccc(N2CCCC2=O)cc1C(=O)N[C@H]1[C@@H](C(=O)Nc2ccc(F)c(C(F)(F)F)c2)[C@H]2CC[C@@H]1/C2=C\C1CC1` [compound 636], the EC50 was 196 nM.
The figure for `COc1ccc(-c2cc(C(F)(F)F)ccc2F)cc1C(=O)N[C@@H]1C2CCC(/C2=C/C2CC2)[C@@H]1C(=O)Nc1ccc(F)c(C(F)(F)F)c1` (stereo partly shown) [compound 286] is 5 nM; for `COc1ccc(C2CCCN2C(=O)CCO)cc1C(=O)N[C@@H]1C2CCC(C2=CC2CC2)[C@@H]1C(=O)Nc1ccc(F)c(C(F)(F)F)c1` (stereo partly shown) [compound 634] it is 191 nM; for `COc1ccc(C2=NOC(C(C)(O)C(F)(F)F)C2)cc1C(=O)N[C@H]1[C@@H](C(=O)Nc2ccc(F)c(C(F)(F)F)c2)[C@H]2CC[C@@H]1/C2=C\C1CC1` (single isomer, unassigned) [compound 682] it is 612 nM.
As for `COc1ccc(-c2cccc(C3=NOC4CC(O)CC34)c2)cc1C(=O)N[C@H]1[C@@H](C(=O)Nc2ccc(F)c(C(F)(F)F)c2)[C@H]2CC[C@@H]1/C2=C\C1CC1` (stereo partly shown) [compound 902], the EC50 worked out at 8.7 nM.
For the molecule `COc1ccc(-c2cc(C(OC(=O)NC3CCC3)C(F)(F)F)ccc2F)cc1C(=O)N[C@@H]1C2CCC(/C2=C/C2CC2)[C@@H]1C(=O)Nc1ccc(F)c(C(F)(F)F)c1` (stereo partly shown) [compound 211], the EC50 was 1 nM.
In the case of `COc1ccc(C2=NO[C@H]3C[C@H](CO)C[C@@H]23)cc1C(=O)N[C@H]1[C@@H](C(=O)Nc2ccc(F)c(C(F)(F)F)c2)[C@H]2CC[C@@H]1/C2=C\C1C[C@@H](F)[C@@H](F)C1` (stereo partly shown) [compound 828], the EC50 stood at 3.3 nM.
Under `COc1ccc(N2CCCC(C(=O)O)C2)cc1C(=O)N[C@@H]1C2CCC(/C2=C/c2ccccc2)[C@@H]1C(=O)Nc1ccc(F)c(C(F)(F)F)c1` (stereo partly shown) [Example 136] stands 270 nM; under `O=C(N[C@H]1[C@@H](C(=O)Nc2ccc(F)c(C(F)(F)F)c2)[C@H]2CC[C@@H]1/C2=C\C1CC1)c1cc(C2=NOC3COCC23)cc(F)c1OCC1CC1` (stereo partly shown) [compound 799], 4.7 nM.
In the case of `COc1ccc(C2=NOC(C)(C)N2C(C)C)cc1C(=O)N[C@H]1[C@@H](C(=O)Nc2ccc(F)c(C(F)(F)F)c2)[C@H]2CC[C@@H]1/C2=C\C1CC1` [Example 591], the half-maximal effective concentration (EC50) was determined as 86.6 nM.
The figure for `COc1ccc(-c2cc(C(=O)N3CC[C@@H](O)C3)on2)cc1C(=O)N[C@H]1[C@@H](C(=O)Nc2ccc(F)c(C(F)(F)F)c2)[C@H]2CC[C@@H]1/C2=C\C1CC1` [compound 617] is 153 nM.
As for `COc1ccc(-c2ccc(C(=O)O)cc2F)cc1C(=O)N[C@@H]1C2CCC(/C2=C/c2ccccc2)[C@@H]1C(=O)Nc1ccc(F)c(C(F)(F)F)c1` (stereo partly shown) [compound 169], the EC50 turned out to be 44 nM.
For `CN(C)c1ccc(C2=NOC3COCC23)cc1C(=O)N[C@H]1[C@@H](C(=O)Nc2ccc(F)c(C(F)(F)F)c2)[C@H]2CC[C@@H]1/C2=C\C1CC1` (stereo partly shown) [compound 460], the EC50 was 2.5 nM.
As to `COc1ccc(-c2cccc(OC(F)(F)F)c2)cc1C(=O)N[C@@H]1C2CCC(/C2=C/C2CC2)[C@@H]1C(=O)Nc1ccc(F)c(C(F)(F)F)c1` (stereo partly shown) [compound 281], the EC50 is 15 nM.
Turning to `COC(=O)N1CCN(c2ccc(OC)c(C(=O)NC3C4CCC(C4=Cc4ccccc4)C3C(=O)Nc3ccc(F)c(C(F)(F)F)c3)c2)CC1` (stereo not shown) [Example 125], the EC50 is 240 nM.
With `COc1cc(F)c(F)cc1C(=O)N[C@@H]1C2CCC(/C2=C/c2cccc(Oc3ccccc3)c2)[C@@H]1C(=O)Nc1ccc(F)c(C(F)(F)F)c1` (stereo partly shown) [compound 46], the 50% effective concentration (EC50) is 120 nM.
Take `COc1c(F)cc(C2=NOC3CC(CO)CC23)cc1C(=O)N[C@H]1[C@@H](C(=O)Nc2ccc(F)c(C(F)(F)F)c2)[C@H]2CC[C@@H]1/C2=C\CC(O)C(F)(F)F` (stereo partly shown) [compound 836]: the half-maximal effective concentration (EC50) worked out at 4.1 nM.
For `CCOC(=O)C(NC(=O)C1CCOCC1)c1cnn(-c2ccc(OC)c(C(=O)N[C@@H]3C4CCC(/C4=C/C(F)(F)F)[C@@H]3C(=O)Nc3ccc(F)c(C(F)(F)F)c3)c2)c1` (stereo partly shown) [Example 346], the EC50 stood at 169 nM.
For `COc1ccc(C2=NO[C@@H]3C[C@H](CO)CN23)cc1C(=O)N[C@H]1[C@@H](C(=O)Nc2ccc(F)c(C(F)(F)F)c2)[C@H]2CC[C@@H]1/C2=C\C1CC1` [compound 846], the EC50 is 1.8 nM.
Take `COc1ccc(C2=NOC(C(C)O)C2)cc1C(=O)N[C@H]1[C@@H](C(=O)Nc2ccc(F)c(C(F)(F)F)c2)[C@H]2CC[C@@H]1/C2=C\C1CC1` (single isomer, unassigned) [compound 598]: the half-maximal effective concentration (EC50) came out at 102 nM.
Under `CC=C1C2CCC1[C@H](C(=O)Nc1ccc(F)c(C(F)(F)F)c1)[C@@H]2NC(=O)c1cc(F)c(F)cc1OC` (stereo partly shown) [compound 50] stands 150 nM; under `COc1ccc(C2CCOCC2)cc1C(=O)NC1C2CCC(/C2=C/C2CCC2)C1C(=O)Nc1ccc(F)c(C(F)(F)F)c1` (stereo not shown) [compound 369], 65 nM; under `COc1ccc(C2=NOC3COCC23)cc1C(=O)N[C@H]1[C@@H](C(=O)NC(C)C2CCC2)[C@H]2CC[C@@H]1/C2=C\C1CC1` (single isomer, unassigned) [compound 683], 626 nM.
Regarding `COc1ccc(C2=NOC3COCC23)cc1C(=O)N[C@H]1[C@@H](C(=O)NCCc2cccc(C)c2)[C@H]2CC[C@@H]1/C2=C\C1CC1` (stereo partly shown) [compound 650], the EC50 came to 262 nM.
Under `COc1ccc(C2=NOC(CO)C2)cc1C(=O)N[C@@H]1C2CCC(/C2=C/C2CCC2)[C@@H]1C(=O)Nc1ccc(F)c(C(F)(F)F)c1` (single isomer, unassigned) [Example 379] stands 26 nM.
Under `COc1ccc(C2=NOC3COCC23)cc1C(=O)N[C@H]1[C@@H](C(=O)Nc2ccc(F)c(C(F)(F)F)c2)[C@H]2CC[C@@H]1/C2=C\c1csc(C)n1` (stereo partly shown) [compound 806] stands 4.9 nM.

Usually EC50 stands for the concentration giving half of the maximal effect.
